Consider one molecule from US11974983B2 (Duke University, priority 2018, dated 2024).

Series [1] has as its system MCF7 cells stably expressing DOX-inducible ER Y537S. Nature of the series: Dose response cell counting in MCF7 cells with DOX-inducible HA-tagged ER Y537S. The format is cell-based. The note with it: for IC50: Homo sapiens, MCF7, 120 h, allele Y537S, cell count day 5, full medium. As for the experimental part: MCF7 estrogen receptor alpha positive (ER^+) breast cancer cells were engineered to stably express doxycycline (DOX)-inducible hemagglutinin (HA)-tagged full length ER with ligand binding domain mutations Y537S and D538G. The introduction and expression of the mutants were confirmed by Sanger sequencing, RNA-sequencing, and western blot.
The dose response studies were performed in full medium conditions. Cells were treated with DOX for the induction of HA-tagged mutated ER or with vehicle as control, and plated in triplicate. Subsequently, on day 5, cell counting was performed using the Celigo instrument with Hoechst dye staining to detect nucleated live cells and propidium iodide to quantify dead cells.
IC50 values were calculated using PRISM.

The conditions of series [2]: in blood, cited from earlier work.

Like-named read-outs stand apart in the source and are kept apart here.

Regarding `Oc1ccc2c(c1)CC[C@H](c1ccccc1)[C@@H]2c1ccc(OCCN2CCCC2)cc1` [Lasofoxifene, lasofoxifene], the half-maximal inhibitory concentration (IC50) – broadly, the concentration that gives 50% inhibition – turned out to be 4.1 nM in series [1] (DOX-induced mutant ER, read-out: IC50 DOX (ESR mutation)) and 0.36 nM in series [1] (no DOX, read-out: IC50 No DOX (wt only)). In series [1] (Y537S stable transfectants, 10^−12 M to 10^−6 M), the “anti-estrogenic activity, cell killing with increasing dose titration” value was “kill the stably transfected cells”. Further, the “Reported Cmax” value was 3.6 ng/mL in series [2] (dose 0.5 mg) and 6.43 ng/mL in series [2] (dose 1 mg).
